As a reminder, the Ki is the dissociation constant of the complex between target and ligand, obtained from inhibition or displacement. For orientation: pEC50 means −log10 of the EC50, conventionally taken in molar units.

The results in this text go back to US20030144310A1 (priority 2001, published 2003).

pEC50: −log10 of the molar value.

Test [1] concerns the target T1, rNPFF-2 (Rattus norvegicus, UniProt Q9EQD2).
T1 construct: expressed in transfected cells
Nature of the test: Functional activity (EC50 and intrinsic activity relative to NPFF). The following applies: for Functional Activity rNPFF-2 I.A. %: intrinsic activity as percentage of maximal response by NPFF; for pEC50: tested 0.001 nM to 3600 nM, read-out: Functional Activity rNPFF-2 EC50. In kind it is cell-based.
Text: (§1) The data shown are representative of at least two independent experiments.

Test [2] has as its target T1, rNPFF-2. Nature of the test: Radioligand binding assay, competitive displacement of [125I]1DMeNPFF at cloned NPFF receptors. To be noted: cloned rat receptor. For orientation: Displacement assays read how much labelled ligand stays bound in the presence of the test substance.
For test [3], the target named is T2, rNPFF-1 (Rattus norvegicus, UniProt Q9EP86).
T2 construct: expressed in transfected cells
Described as above. To be noted: cloned rat receptor.

Test [4] deals with T2, rNPFF-1. Nature of the test: Functional activity (EC50 and intrinsic activity relative to NPFF). The class given is cell-based. The following applies: for Functional Activity rNPFF-1 I.A. %: intrinsic activity as percentage of maximal response by NPFF; for pEC50: tested 0.001 nM to 3600 nM.
Text: as §1
Where [5] appears, read: rat cloned NPFF receptors, by IA and Ki.

T1 sequence (Q9EQD2 whole entry): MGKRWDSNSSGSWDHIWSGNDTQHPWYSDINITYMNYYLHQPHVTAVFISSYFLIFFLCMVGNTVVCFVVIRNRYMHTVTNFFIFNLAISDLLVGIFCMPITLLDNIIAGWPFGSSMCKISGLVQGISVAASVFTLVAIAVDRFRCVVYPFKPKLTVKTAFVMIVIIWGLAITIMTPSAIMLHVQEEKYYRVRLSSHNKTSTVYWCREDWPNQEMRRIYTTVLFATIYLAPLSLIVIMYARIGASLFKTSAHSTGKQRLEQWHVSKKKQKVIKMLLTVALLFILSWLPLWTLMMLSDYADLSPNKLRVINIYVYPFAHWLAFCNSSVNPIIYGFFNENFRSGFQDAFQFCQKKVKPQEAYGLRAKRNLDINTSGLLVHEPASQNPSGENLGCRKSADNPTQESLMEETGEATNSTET
T2 sequence (Q9EP86 whole entry): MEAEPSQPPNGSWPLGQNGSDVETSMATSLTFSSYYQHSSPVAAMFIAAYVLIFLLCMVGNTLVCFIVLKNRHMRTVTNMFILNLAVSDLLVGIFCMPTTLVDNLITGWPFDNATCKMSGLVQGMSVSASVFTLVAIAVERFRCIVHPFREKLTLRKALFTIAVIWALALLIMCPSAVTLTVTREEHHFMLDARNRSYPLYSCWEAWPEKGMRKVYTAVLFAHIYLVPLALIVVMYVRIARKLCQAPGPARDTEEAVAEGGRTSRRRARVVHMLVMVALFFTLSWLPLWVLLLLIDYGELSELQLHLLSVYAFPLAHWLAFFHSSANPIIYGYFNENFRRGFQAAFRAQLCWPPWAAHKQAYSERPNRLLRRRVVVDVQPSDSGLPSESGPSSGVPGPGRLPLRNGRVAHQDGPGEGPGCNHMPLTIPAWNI

Regarding `N=C(N)NCCC[C@H](NS(=O)(=O)c1c(F)cccc1F)C(=O)N[C@@H](Cc1ccccc1)C(N)=O` [Compound 1004], the “Functional Activity rNPFF-2 I.A. %” value in test [1] came out at 43%. Further, the Ki in test [2] was determined as 1450 nM; in test [3], 173 nM. Further, in test [4], the “Functional Activity rNPFF-1 I.A. %” value was determined as 79%. Further, the pEC50 in test [4] was 6.93.
As to `COc1ccc(C)cc1S(=O)(=O)N[C@@H](CCCNC(=N)N)C(=O)N[C@@H](Cc1ccccc1)C(N)=O` [Compound 2003], in test [1], the “Functional Activity rNPFF-2 I.A. %” value was 52% and the pEC50 is under 5.50. For the same compound, the Ki in test [2] is over 10000 nM. In test [4], the “Functional Activity rNPFF-1 I.A. %” value is listed as 102%.
Take `N=C(N)NCCC[C@H](NS(=O)(=O)c1cccc2ccccc12)C(=O)N[C@@H](Cc1ccccc1)C(N)=O` [Compound 1001, N1-[(1S)-2-Amino-1-benzyl-2-oxoethyl]-(2S)-(5-guanidino)-2-[(1-naphthylsulfonyl)amino]pentanamide]: in test [1], the “Functional Activity rNPFF-2 I.A. %” value worked out at 81%. The pEC50 was 6.28 in test [1] and 7.42 in test [4]. The Ki in test [2] worked out at 1450 nM; in test [3], 261 nM. Moreover, in test [4], the “Functional Activity rNPFF-1 I.A. %” value came out at 88%.
`N=C(N)NCCC[C@H](NS(=O)(=O)c1cc(Cl)sc1Cl)C(=O)N[C@@H](Cc1ccccc1)C(N)=O` [Compound 1020]: in test [1], the “Functional Activity rNPFF-2 I.A. %” value was found to be 02% and the pEC50 is under 5.00. Besides, the Ki in test [2] turned out to be 5150 nM. Further, the Ki in test [3] came to 1950 nM. In addition, in test [4], the “Functional Activity rNPFF-1 I.A. %” value is recorded as 01% and the pEC50 is under 5.00.
Regarding `COc1ccc(S(=O)(=O)N[C@@H](CCCNC(=N)N)C(=O)N[C@@H](Cc2ccccc2)C(N)=O)cc1OC` [Compound 1015], in test [1], the “Functional Activity rNPFF-2 I.A. %” value came to 74% and the pEC50 was 5.74. For the same compound, the Ki in test [2] is over 10000 nM. The compound further yielded a Ki in test [3] of 462 nM. For the same compound, in test [4], the “Functional Activity rNPFF-1 I.A. %” value turned out to be 84% and the pEC50 is 6.85.
For `N=C(N)NCCC[C@H](NS(=O)(=O)c1c(F)c(F)c(F)c(F)c1F)C(=O)N[C@@H](Cc1ccccc1)C(N)=O` [Compound 1024], the “Functional Activity rNPFF-2 I.A. %” value in test [1] was 43%. Moreover, the pEC50 was under 5.50 in test [1] and 6.14 in test [4]. The Ki in test [2] was 5400 nM; in test [3], 486 nM. Also, the “Functional Activity rNPFF-1 I.A. %” value in test [4] was 69%.
Take `COc1ccc(Br)cc1S(=O)(=O)N[C@@H](CCCNC(=N)N)C(=O)N[C@@H](Cc1ccccc1)C(N)=O` [Compound 1025]: in test [1], the “Functional Activity rNPFF-2 I.A. %” value stood at 33%. For the same compound, the pEC50 was under 5.50 in test [1] and 6.22 in test [4]. For the same compound, the Ki stood at 4120 nM in test [2] and 328 nM in test [3]. Further, the “Functional Activity rNPFF-1 I.A. %” value in test [4] came out at 78%.
For the compound `N=C(N)NCCC[C@H](NS(=O)(=O)c1ccc(Cl)c(Cl)c1)C(=O)N[C@@H](Cc1ccccc1)C(N)=O` [Compound 1022], in test [1], the “Functional Activity rNPFF-2 I.A. %” value was 34% and the pEC50 is under 5.50. In test [4], the “Functional Activity rNPFF-1 I.A. %” value is on record as 86% and the pEC50 was 5.73.
For the compound `N=C(N)NCCC[C@@H](NS(=O)(=O)c1ccccc1Br)C(=O)N[C@@H](Cc1ccccc1)C(N)=O` [Compound 1030], in test [1], the “Functional Activity rNPFF-2 I.A. %” value amounted to 71%.
Consider `N=C(N)NCCC[C@H](NS(=O)(=O)c1ccc2ccccc2c1)C(=O)N[C@H](Cc1ccccc1)C(N)=O` [Compound 1029], for which, in test [1], the “Functional Activity rNPFF-2 I.A. %” value worked out at 86% and the pEC50 was under 5.50. Further, in test [2], the affinity, expressed as Ki, was 2690 nM. In test [3], this compound yielded a Ki of 399 nM. In test [4], the “Functional Activity rNPFF-1 I.A. %” value worked out at 30% and the pEC50 is 6.32.
For `N=C(N)NCCC[C@H](NS(=O)(=O)c1ccc(Cl)c([N+](=O)[O-])c1)C(=O)N[C@@H](Cc1ccccc1)C(N)=O` [Compound 1016], the “Functional Activity rNPFF-2 I.A. %” value in test [1] worked out at 81%. Further, the pEC50 was 6.18 in test [1] and 7.21 in test [4]. In addition, the figures for the Ki in test [2] and in test [3] were 2090 nM and 151 nM, respectively. The “Functional Activity rNPFF-1 I.A. %” value in test [4] turned out to be 72%.
Turning to `N=C(N)NCCC[C@H](NS(=O)(=O)c1c(Cl)cccc1Cl)C(=O)N[C@@H](Cc1ccccc1)C(N)=O` [Compound 1019], in test [1], the “Functional Activity rNPFF-2 I.A. %” value is 45%. In addition, the pEC50 in test [1] is under 5.50; in test [4] it was 5.66. Further, the Ki in test [2] amounted to 3370 nM; in test [3], 815 nM. The “Functional Activity rNPFF-1 I.A. %” value in test [4] stood at 56%.
For the compound `N=C(N)NCCC[C@H](NS(=O)(=O)c1ccc(I)cc1)C(=O)N[C@@H](Cc1ccccc1)C(N)=O` [Compound 1012], in test [1], the “Functional Activity rNPFF-2 I.A. %” value worked out at 93% and the pEC50 is 5.85. Also, in test [2], the Ki turned out to be 2920 nM. In addition, in test [3], the affinity, expressed as Ki, was 1430 nM. Besides, in test [4], the “Functional Activity rNPFF-1 I.A. %” value turned out to be 71% and the pEC50 was 6.45.
For `N=C(N)NCCC[C@H](NS(=O)(=O)c1ccccc1Br)C(=O)N[C@@H](Cc1ccccc1)C(N)=O` [Compound 2001], the “Functional Activity rNPFF-2 I.A. %” value in test [1] stood at 09%.
Turning to `N=C(N)NCCC[C@H](NS(=O)(=O)c1c(F)cccc1F)C(=O)N[C@H](Cc1ccccc1)C(N)=O` [Compound 1032], in test [1], the “Functional Activity rNPFF-2 I.A. %” value is given as 61% and the pEC50 was 5.56. In test [2], this compound gave a Ki of over 10000 nM. The compound also gave a Ki in test [3] of 1290 nM. In test [4], the “Functional Activity rNPFF-1 I.A. %” value is 47% and the pEC50 was 6.19.
Turning to `N=C(N)NCCC[C@H](NS(=O)(=O)c1ccc(Cl)cc1)C(=O)N[C@@H](Cc1ccccc1)C(N)=O` [Compound 1006], in test [1], the “Functional Activity rNPFF-2 I.A. %” value is on record as 43%. The pEC50 in test [1] was 5.43; in test [4] it was 6.82. The Ki in test [2] came out at 1010 nM; in test [3], 266 nM. In addition, the “Functional Activity rNPFF-1 I.A. %” value in test [4] amounted to 75%.
As for `N#Cc1cccc(S(=O)(=O)N[C@@H](CCCNC(=N)N)C(=O)N[C@@H](Cc2ccccc2)C(N)=O)c1` [Compound 1023], in test [1], the “Functional Activity rNPFF-2 I.A. %” value was 28% and the pEC50 was under 5.50. Moreover, the affinity in test [2] corresponds to a Ki of 9920 nM. In addition, the affinity in test [3] corresponds to a Ki of 496 nM. In test [4], the “Functional Activity rNPFF-1 I.A. %” value is 90% and the pEC50 was 6.78.
As to `N=C(N)NCCC[C@H](NS(=O)(=O)c1ccc([N+](=O)[O-])cc1)C(=O)N[C@@H](Cc1ccccc1)C(N)=O` [Compound 1003], in test [1], the “Functional Activity rNPFF-2 I.A. %” value was determined as 44% and the pEC50 is 5.73. In test [2], affinity was put at a Ki of 2610 nM. The compound further had a Ki in test [3] of 732 nM. In test [4], the “Functional Activity rNPFF-1 I.A. %” value is 74% and the pEC50 is 6.83.
For `N=C(N)NCCC[C@@H](NS(=O)(=O)c1cccc2ccccc12)C(=O)N[C@@H](Cc1ccccc1)C(N)=O` [Compound 3001], in test [1], the “Functional Activity rNPFF-2 I.A. %” value is 79% and the pEC50 was 6.42. The “classification agonist/antagonist at NPFF2 receptors” value in test [1] (setting [5]) is “agonist (an agonist has an intrinsic activity (IA)>15%)”. In test [2], this compound displayed a Ki of 2860 nM. For the same compound, in test [3], the Ki came to 46 nM. Besides, in test [4], the “Functional Activity rNPFF-1 I.A. %” value was found to be 1% and the pEC50 was under 5.00. In test [4] (setting [5]), the “classification agonist/antagonist at NPFF1 receptors” value is “antagonist (an antagonist has a Ki≦1.2 μM and an intrinsic activity (IA)≦15%)”.
For the compound `COc1ccc(S(=O)(=O)N[C@@H](CCCNC(=N)N)C(=O)N[C@@H](Cc2ccccc2)C(N)=O)cc1` [Compound 1009], the figures for the Ki in test [2] and in test [3] were 1090 nM and 321 nM, respectively.
